Our source for the IC50 values is patent US20070049593A1 (priority 2004, published 2007).

pIC50: −log10 of the molar value. Where a name gives a salt, the structure may show the parent alone.

Usually pIC50 stands for the negative decadic logarithm of the IC50, by convention in mol/L. High values mean a small IC50, low ones a large IC50.

The target of this assay is T1, HCV polymerase (Hepatitis C virus genotype 1b, UniProt P26663).
T1 construct: a region encoding NS5B (J Virol 1991 March, 65(3), 1105-13, 544 amino acids after deletion of 47 amino acids on the C-terminal); 6xHis (C); made in house; host or cells: Escherichia coli
T1 sequence (P26663 2420-2963): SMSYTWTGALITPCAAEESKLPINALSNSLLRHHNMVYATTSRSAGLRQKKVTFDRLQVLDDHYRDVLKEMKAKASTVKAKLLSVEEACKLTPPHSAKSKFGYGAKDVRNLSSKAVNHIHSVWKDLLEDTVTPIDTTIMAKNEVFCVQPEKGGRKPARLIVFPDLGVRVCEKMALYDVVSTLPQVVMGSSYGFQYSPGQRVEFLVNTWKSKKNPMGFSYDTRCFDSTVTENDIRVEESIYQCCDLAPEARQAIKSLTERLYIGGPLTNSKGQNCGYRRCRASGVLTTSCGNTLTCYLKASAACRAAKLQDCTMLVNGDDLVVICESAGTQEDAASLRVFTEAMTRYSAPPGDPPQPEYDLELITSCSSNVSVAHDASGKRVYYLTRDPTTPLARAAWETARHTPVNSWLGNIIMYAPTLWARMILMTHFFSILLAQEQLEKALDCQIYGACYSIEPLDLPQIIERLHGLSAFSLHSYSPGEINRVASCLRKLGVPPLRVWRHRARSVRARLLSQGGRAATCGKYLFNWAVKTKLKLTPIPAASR
Nature of the assay: biochemical. The arrangement: species or system HCV BK strain. The essentials: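 Recombinant HCV BK-strain NS5B (C-terminal 47 aa deleted, His6-tagged, E. coli), 0.5 μg/ml, run with 5 μg/ml in vitro-transcribed RNA template (polyU/3′X), ATP/GTP/CTP 50 μM, UTP 2 μM plus [3H]UTP, pH 7.5, 25° C, 90 min. TCA-precipitated RNA counted by scintillation; IC50 from activity with vs without compound.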
`COC(=O)Nc1ccccc1Oc1ccc2c(c1)OCCn1c-2c(C2CCCCC2)c2ccc(C(=O)O)cc21` [Example 2-52, 12-cyclohexyl-3-[2-(methoxycarbonylamino)phenoxy]-6,7-dihydro-5-oxa-7a-azadibenzo[a,e]azulene-9-carboxylic acid] gave a pIC50 above 7.00.

Turning to `O=C(O)c1ccc2c(C3CCCCC3)c3n(c2c1)CCOc1c(OCCN2CCCCC2)cccc1-3` [Example 2-53, 12-cyclohexyl-4-[2-(piperidin-1-yl)ethoxy]-6,7-dihydro-5-oxa-7a-azadibenzo[a,e]azulene-9-carboxylic acid hydrochloride], the pIC50 was above 7.00.

On to `O=C(O)c1ccc(NC(=O)C2(NC(=O)c3ccc4c(C5CCCCC5)c5n(c4c3)CCOc3ccccc3-5)CCC2)nc1` [Example 2-54, 6-({1-[(12-cyclohexyl-6,7-dihydro-5-oxa-7a-azadibenzo[a,e]azulene-9-carbonyl)amino]cyclobutanecarbonyl}amino)nicotinic acid], for which the pIC50 is above 7.00.

`O=C(O)CNC(=O)C1(NC(=O)c2ccc3c(C4CCCCC4)c4n(c3c2)CCOc2ccccc2-4)CCC1` [Example 2-55, ({1-[(12-cyclohexyl-6,7-dihydro-5-oxa-7a-azadibenzo[a,e]azulene-9-carbonyl)amino]cyclobutanecarbonyl}amino)acetic acid] had a pIC50 above 7.00.

In turn, `O=C(NC1(C(=O)NC2(C(=O)O)CCC2)CCC1)c1ccc2c(C3CCCCC3)c3n(c2c1)CCOc1ccccc1-3` [Example 2-151, 1-({1-[(12-cyclohexyl-6,7-dihydro-5-oxa-7a-azadibenzo[a,e]azulene-9-carbonyl)amino]cyclobutanecarbonyl}amino)cyclobutanecarboxylic acid] showed a pIC50 above 7.00.

With `COC(=O)c1ccc2nc(C3(NC(=O)c4ccc5c(C6CCCCC6)c6n(c5c4)CCOc4ccccc4-6)CCC3)[nH]c2c1` [Example 2-152, methyl 2-{1-[(12-cyclohexyl-6,7-dihydro-5-oxa-7a-azadibenzo[a,e]azulene-9-carbonyl)amino]cyclobutyl}-3H-benzimidazole-5-carboxylate], the negative-log IC50 (pIC50) was above 7.00.

`O=C(O)c1ccc(N[C@@H]2CCCC[C@H]2NC(=O)c2ccc3c(C4CCCCC4)c4n(c3c2)CCOc2ccccc2-4)cc1` [Example 2-153, 4-{(1R,2R)-2-[(12-cyclohexyl-6,7-dihydro-5-oxa-7a-azadibenzo[a,e]azulene-9-carbonyl)amino]cyclohexylamino}benzoic acid] had a pIC50 above 7.00.

As to `COCC(C)(NC(=O)c1ccc2c(C3CCCCC3)c3n(c2c1)CCOc1ccccc1-3)C(=O)O` (stereo not shown) [Example 2-154, 2-[(12-cyclohexyl-6,7-dihydro-5-oxa-7a-azadibenzo[a,e]azulene-9-carbonyl)amino]-3-methoxy-2-methylpropionic acid], the negative-log IC50 (pIC50) is 6.00 to 7.00.

In turn, `CC(C)(C)OC(=O)N1CCC(NC(=O)c2ccc3c(C4CCCCC4)c4n(c3c2)CCOc2ccccc2-4)(C(=O)Nc2ccc(/C=C/C(=O)O)cc2)CC1` [Example 2-155, tert-butyl 4-[4-((E)-2-carboxyvinyl)phenylcarbamoyl]-4-[(12-cyclohexyl-6,7-dihydro-5-oxa-7a-azadibenzo[a,e]azulene-9-carbonyl)amino]piperidine-1-carboxylate] gave a pIC50 above 7.00.

In turn, `CC(C)(COc1ccc(C(=O)O)cc1)NC(=O)c1ccc2c(C3CCCCC3)c3n(c2c1)CCOc1ccccc1-3` [Example 2-156, 4-{2-[(12-cyclohexyl-6,7-dihydro-5-oxa-7a-azadibenzo[a,e]azulene-9-carbonyl)amino]-2-methylpropoxy}benzoic acid] gave a pIC50 above 7.00.

As to `CC(C)(COc1ccc(C#N)cc1)NC(=O)c1ccc2c(C3CCCCC3)c3n(c2c1)CCOc1ccccc1-3` [Example 2-157, N-[2-(4-cyanophenoxy)-1,1-dimethylethyl]-12-cyclohexyl-6,7-dihydro-5-oxa-7a-azadibenzo[a,e]azulene-9-carboxamide], the pIC50 is 6.00 to 7.00.

In turn, `CC(C)(CNc1ccc(C#N)cc1)NC(=O)c1ccc2c(C3CCCCC3)c3n(c2c1)CCOc1ccccc1-3` [Example 2-158, N-[2-(4-cyanophenylamino)-1,1-dimethylethyl]-12-cyclohexyl-6,7-dihydro-5-oxa-7a-azadibenzo[a,e]azulene-9-carboxamide] gave a pIC50 above 7.00.

The compound `O=C(O)c1ccc2nc(C3(NC(=O)c4ccc5c(C6CCCCC6)c6n(c5c4)CCOc4ccccc4-6)CCC3)[nH]c2c1` [Example 2-160, 2-{1-[(12-cyclohexyl-6,7-dihydro-5-oxa-7a-azadibenzo[a,e]azulene-9-carbonyl)amino]cyclobutyl}-3H-benzimidazole-5-carboxylic acid] had a pIC50 above 7.00.

In turn, `CC(C)N(CCN1CCCCC1)c1cccc2c1OCCn1c-2c(C2CCCCC2)c2ccc(C(=O)O)cc21` [Example 2-161, 12-cyclohexyl-4-{N-isopropyl-N-[2-(piperidin-1-yl)ethyl]amino}-6,7-dihydro-5-oxa-7a-azadibenzo[a,e]azulene-9-carboxylic acid dihydrochloride] gave a pIC50 above 7.00.

For `CN(C)CCN(C)c1cccc2c1OCCn1c-2c(C2CCCCC2)c2ccc(C(=O)O)cc21` [Example 2-162, 12-cyclohexyl-4-[N-(2-dimethylaminoethyl)-N-methylamino]-6,7-dihydro-5-oxa-7a-azadibenzo[a,e]azulene-9-carboxylic acid dihydrochloride], the pIC50 is above 7.00.

Compound `COCC(C)(NC(=O)c1ccc2c(C3CCCCC3)c3n(c2c1)CCOc1ccccc1-3)C(=O)Nc1ccc(/C=C/C(=O)O)cc1` (stereo not shown) [Example 2-163, (E)-3-(4-{2-[(12-cyclohexyl-6,7-dihydro-5-oxa-7a-azadibenzo[a,e]azulene-9-carbonyl)amino]-3-methoxy-2-methylpropionylamino}phenyl)acrylic acid] had a pIC50 above 7.00.

In the case of `O=C(NCCOCCO)c1ccc2c(C3CCCCC3)c3n(c2c1)CCOc1ccccc1-3` [Example 2-164, N-[2-(2-hydroxyethoxy)ethyl]-12-cyclohexyl-6,7-dihydro-5-oxa-7a-azadibenzo[a,e]azulene-9-carboxamide], the pIC50 is 6.00 to 7.00.

For the compound `CC(C)(C)NC(=O)c1ccc2c(C3CCCCC3)c3n(c2c1)CCOc1ccccc1-3` [Example 2-165, N-tert-butyl-12-cyclohexyl-6,7-dihydro-5-oxa-7a-azadibenzo[a,e]azulene-9-carboxamide], the pIC50 was 6.00 to 7.00.

As to `O=C(N[C@H]1CC[C@H](O)CC1)c1ccc2c(C3CCCCC3)c3n(c2c1)CCOc1ccccc1-3` [Example 2-166, N-(trans-4-hydroxycyclohexyl)-12-cyclohexyl-6,7-dihydro-5-oxa-7a-azadibenzo[a,e]azulene-9-carboxamide], the pIC50 is above 7.00.

Take `CC(C)(NC(=O)c1ccc2c(C3CCCCC3)c3n(c2c1)CCOc1ccccc1-3)c1nc(C(=O)O)cs1` [Example 2-167, 2-{1-[(12-cyclohexyl-6,7-dihydro-5-oxa-7a-azadibenzo[a,e]azulene-9-carbonyl)amino]-1-methylethyl}thiazole-4-carboxylic acid]: the pIC50 was above 7.00.

`CCN(CCN1CCCOCC1)c1cccc2c1OCCn1c-2c(C2CCCCC2)c2ccc(C(=O)O)cc21` [Example 2-168, 12-cyclohexyl-4-{N-ethyl-N-[2-(1,4-oxazepan-4-yl)ethyl]amino}-6,7-dihydro-5-oxa-7a-azadibenzo[a,e]azulene-9-carboxylic acid dihydrochloride]: the pIC50 was above 7.00.

As to `CCN(CCCN1CCCCC1)c1cccc2c1OCCn1c-2c(C2CCCCC2)c2ccc(C(=O)O)cc21` [Example 2-169, 12-cyclohexyl-4-{N-ethyl-N-[3-(piperidin-1-yl)propyl]amino}-6,7-dihydro-5-oxa-7a-azadibenzo[a,e]azulene-9-carboxylic acid dihydrochloride], the pIC50 was above 7.00.

`CCN(CCN1CCOCC1)c1cccc2c1OCCn1c-2c(C2CCCCC2)c2ccc(C(=O)O)cc21` [Example 2-170, 12-cyclohexyl-4-{N-ethyl-N-[2-(morpholin-4-yl)ethyl]amino}-6,7-dihydro-5-oxa-7a-azadibenzo[a,e]azulene-9-carboxylic acid dihydrochloride] had a pIC50 above 7.00.

As to `CC(C)(NC(=O)c1ccc2c(C3CCCCC3)c3n(c2c1)CCOc1ccccc1-3)c1ccc(CO)cc1` [Example 2-171, N-[1-(4-hydroxymethylphenyl)-1-methylethyl]-12-cyclohexyl-6,7-dihydro-5-oxa-7a-azadibenzo[a,e]azulene-9-carboxamide], the pIC50 is above 7.00.

Consider `CCOC(=O)c1csc(C(C)(C)NC(=O)c2ccc3c(C4CCCCC4)c4n(c3c2)CCOc2ccccc2-4)n1` [Example 2-172, ethyl 2-{1-[(12-cyclohexyl-6,7-dihydro-5-oxa-7a-azadibenzo[a,e]azulene-9-carbonyl)amino]-1-methylethyl}thiazole-4-carboxylate], for which the pIC50 is above 7.00.

`CNC(=O)c1ccc2c(C3CCCCC3)c3n(c2c1)CCOc1ccccc1-3` [Example 2-173, N-methyl-12-cyclohexyl-6,7-dihydro-5-oxa-7a-azadibenzo[a,e]azulene-9-carboxamide] had a pIC50 above 7.00.

In turn, `O=C(O)/C=C/c1ccc(NC(=O)C2(NC(=O)c3ccc4c(C5CCCCC5)c5n(c4c3)CCOc3ccccc3-5)CCNCC2)cc1` [Example 2-174, (E)-3-[4-({4-[(12-cyclohexyl-6,7-dihydro-5-oxa-7a-azadibenzo[a,e]azulene-9-carbonyl)amino]piperidine-4-carbonyl}amino)phenyl]acrylic acid] had a pIC50 above 7.00.

The compound `COC(=O)[C@H](Cc1ccc(O)cc1)NC(=O)c1ccc2c(C3CCCCC3)c3n(c2c1)CCOc1ccccc1-3` [Example 2-175, methyl (S)-2-[(12-cyclohexyl-6,7-dihydro-5-oxa-7a-azadibenzo[a,e]azulene-9-carbonyl)amino]-3-(4-hydroxyphenyl)propionate] showed a pIC50 above 7.00.
